Like-named read-outs stand apart in the source and are kept apart here.
What was measured:
guinea-pig trachea [1] = assay: Bronchodilating effect in vitro, Method 1-2: relaxation of guinea-pig trachea strips (no LTD4 contraction); type: cell-based; conditions: Cavia porcellus; Method 1-2; trachea conditioned with 1 μM isoproterenol, no LTD4; DMSO 0.2 v/v%; read-out: EC50 (concentration to achieve 50% relaxation relative to relaxation by 1 mM aminophylline)
Experimental: (§1) A test sample drug was dissolved in 100% dimethylsulfoxide (DMSO, Wako Junyaku) and diluted for use. Leukotriene D4 (LTD4, Ultrafine) and isoproterenol (Isoproterenol, Sigma) were diluted with distilled water. Indomethacin (Indo, Sigma) was dissolved in 100% ethanol (EtOH, Komune Kagaku). Aminophylline (AP, Sigma), histamine dihydrochloride (His, Wako Junyaku) was dissolved in distilled water. The final concentrations of DMSO and EtOH in a bath were made not higher than 0.25% v/v and not higher than 0.1% v/v, respectively. Method 1:1:
(§2) A guinea-pig of 300-450 g was exsanguinated, and the trachea was taken out. After removing fat and connective tissues, it was cut and divided into 2 to 3 spiral strips, each having a width of about 2 mm and containing 4 smooth muscle tissues. Each specimen thus prepared was suspended in an organ bath of 8 ml containing a modified Tyrode solution aerated with 95% O2 +5% CO2 at 37° C., and a load of 1 g was applied thereto. The relaxation of the muscle was recorded by a pen recorder (Yokogawa Hokushin Electric, type 3066) by means of an isotonic transducer (Nihon Kohden, TD-112S).
The same measuring method as method 1-1 was employed. The specimen was allowed to stand for from 60 to 90 minutes and then relaxed by an addition of 1 μM of isopreterenol. The specimen was washed, and this operation was repeated at an interval of from 30 to 40 minutes until a constant relaxation reaction was reached. Then, a test sample drug was accumulately applied to relax the specimen. Finally, 1 mM of AP was added to achieve the maximum relaxation reaction. The result was expressed by relaxation percent relative to the relaxation by AP which was rated 100%, and a concentration to achieve 50% relaxation (EC50, μM) was obtained. The final concentration of DMSO in the bath was adjusted to be 0.2 v/v%. As a control drug, AP was used.

guinea-pig trachea [2] = assay: Bronchodilating effect in vitro, Method 1-1: relaxation of LTD4-contracted guinea-pig trachea strips; type: cell-based; conditions: Method 1-1, LTD4 (30 nM) contracted trachea, indomethacin 5 μM, read-out: EC50 (concentration to achieve 50% relaxation relative to relaxation by 1 mM aminophylline)
Experimental: as §1, §2
The composition of the modified Tyrode solution was as follows (mM):
The specimen was allowed to stand for 50-60 minutes, and was contracted with histamine dihydrochloride (100 μM). After the reaction became constant, it was washed and allowed to stand for 20-30 minutes. Indomethacin (5 μM) was added thereto, and after incubation for 30 minutes, the specimen was contracted by adding LTD4 (30 nM). After the reaction-became stable, a test sample drug was accumulatively administered. Finally, AP (1 mM) was added to achieve the maximum relaxation reaction. The result was expressed by relaxation percent relative to the relaxation by AP which was rated 100%, and a concentration to achieve 50% relaxation (EC50, μM) was measured. As a control drug, AP was used.

platelet = assay: Anti-platelet aggregation effect in rabbits (ADP-induced); type: cell-based, rabbit; conditions: rabbit PRP, ADP 5 to 10 μM, 37° C., read-out: IC50 (concentration at which aggregation of control sample was 50% inhibited)
Experimental: Anti-platelet aggregation effect in rabbits
Blood was collected from the abdominal artery of Japanese white male rabbits (weight: 1.8 to 2.5 kg) into a syringe containing 1/10 volume 3.8% sodium citrate. The blood thus obtained was subjected to a centrifugation at 200×g for 7 minutes at room temperature to obtain platelet rich plasma (PRP). Furthermore, the residue was subjected to a centrifugation at 2000×g for 10 minutes to obtain platelet poor plasma (PPP). The measurement was effected by diluting PRP with PPP to 300,000/mm^3. PRP and PPP were placed in a cuvette, and the measurement range of transmittance was adjusted to 0% in the case of PRP and to 100% in the case of PPP. Thereafter, a test sample drug dissolved in 100% dimethylsulfoxide (DMSO) was added to PRP (the final concentration of DMSO: 0.25%). After incubation was effected at 37° C. at 900 rpm for 2 minutes, an aggregating agent was added to record an aggregation curve. The anti-platelet aggregation effect of the test sample drug was expressed by a concentration (IC50 : μM) at which the aggregation of control sample was 50% inhibited. The aggregating agent ADP was used at the minimum concentration (5 to 10 μM) which caused the maximum aggregation. The measurement of platelet aggregation was carried out by using NBS HEMA TRACER 601.

[3] = tested on: anaphylactic bronchoconstriction mediated by endogeneously liberated SRS-A; assay: Effect on anaphylactic bronchoconstriction mediated by endogeneously liberated SRS-A in passively sensitized guinea-pig; type: in vivo; conditions: 30 mg/kg, orally 2 hours before EA challenge; for inhibition in vivo at 30 mg/kg: Cavia porcellus, po, 2 h, read-out: Inhibition of broncho-constriction
Experimental: Effect on anaphylactic bronchoconstriction mediated by endogeneously liberated SRS-A in passively sensitized guinea-pig
Male guinea-pigs (350-450 g) were passively sensitized with intravenous (i.v.) injection of 0.125 ml rabbit anti-EA (egg albumin) serum (Capple Laboratories) 1 to 2 days preceding the experiment. Antigen-induced anaphylactic bronchoconstrictions mediated by endogeneously liberated SRS-A were measured by modified method of Konzett and Rossler (Arch. Exp. Path. Pharmak., 195, 71, 1940). Sensitized quinea-pigs were anaesthetized with intraperitoneal injection of urethane (1.5 g/kg). The right jugular vein was cannulated for the administration of the all agents and trachea was cannulated to record total pulmonary resistance. Guinea-pigs were artificially ventilated by a small animal respirator (Shinano, Model SN-480-7) set at a stroke volume of 4.5 ml and a rate of 50 breaths per min. The change in pulmonary resistance was measured with a pressure transducer (Nihon Kohden, Model TP-602T) connected to a T-tube on the tracheal cannula. The percentage of the maximum bronchoconstriction obtained by clamping off the trachea. Following surgical preparation, the animals were pretreated with indomethacin (2 mg/kg, 10 min), pyrilamine (2 mg/kg, 6 min) and propranolol (0.1 mg/kg, 5 min) prior to the EA challenge (0.2 mg/kg). All test compounds were administered orally 2 hours before the EA challenge. Inhibition (%) of broncho-constriction was determined as follows: Inhibition (%)=(1.0-% maximum bronchoconstriction in test/% maximum bronchoconstriction in control)×100. The maximum bronchoconstriction was 62±6% (Mean±S.E.M; n=6) and the number of test animals was 5-6.

[4] = Oryctolagus cuniculus, Platelet

Row | SMILES | EC50 (guinea-pig trachea [1]) | EC50 (guinea-pig trachea [2]; Cavia porcellus) | also measured
1 | Cn1c(=O)c2[nH]cnc2n(C)c1=O [Aminophylline, reference compound] | 37000 nM | 178000 nM | 
2 | COc1ccc(CNc2cn[nH]c(=O)c2Cl)cc1OCCN1CCN(Cc2ccccc2)CC1 [Compound 4] |  | 1700 nM | IC50 (platelet; [4]): 5200 nM
3 | COc1ccc(CNc2cn[nH]c(=O)c2Br)cc1OCCN1CCN(Cc2ccccc2)CC1 [Compound 5] |  | 420 nM | IC50 (platelet; [4]): 4100 nM
4 | COc1ccc(CNc2cn[nH]c(=O)c2Br)cc1OCCN1CCN(Cc2ccccc2)CC1 [Compound 6] |  |  | IC50 (platelet): 3900 nM
5 | COc1ccc(CNc2cn[nH]c(=O)c2Br)cc1OCCN1CCN(Cc2ccc(F)cc2)CC1 [Compound 13] |  | 450 nM | IC50 (platelet; [4]): 2900 nM
6 | COc1ccc(CNc2cn[nH]c(=O)c2Br)cc1OCCN1CCN(Cc2ccc(F)cc2)CC1 [Compound 14] |  |  | IC50 (platelet): 3500 nM
7 | COc1ccc(CNc2cn[nH]c(=O)c2Cl)cc1OCCN1CCN(Cc2ccc(F)cc2)CC1 [Compound 15] |  | 480 nM | IC50 (platelet; [4]): 4500 nM
8 | COc1ccc(CNc2cn[nH]c(=O)c2Cl)cc1OCCN1CCN(Cc2ccc(F)cc2)CC1 [Compound 16] | 340 nM |  | IC50 (platelet): 5200 nM
9 | CCn1ncc(NCc2ccc(OC)c(OCCCN3CCN(Cc4ccc(F)cc4)CC3)c2)c(Cl)c1=O [Compound 27] |  | 4000 nM | 
10 | COc1ccc(CNc2cn[nH]c(=O)c2Cl)cc1OCC(=O)NCc1cccnc1 [Compound 31] |  | 6900 nM | 
11 | COc1ccc(CNc2cn[nH]c(=O)c2Br)cc1OCC(=O)N1CCN(Cc2cccnc2)CC1 [Compound 34] |  | 3800 nM | 
12 | COc1ccc(CNc2cn[nH]c(=O)c2Cl)cc1OCC(=O)N1CCN(Cc2cccnc2)CC1 [Compound 35] |  | 6600 nM | 
13 | COc1ccc(CNc2cn[nH]c(=O)c2Cl)cc1OCC(=O)N1CCN(Cc2ccccc2)CC1 [Compound 37] |  |  | Inhibition of broncho-constriction [3]: 54%
14 | COc1ccc(CNc2cn[nH]c(=O)c2Br)cc1OCC(=O)N1CCN(Cc2ccccc2)CC1 [Compound 38] |  |  | IC50 (platelet; [4]): 1200 nM
15 | COc1ccc(CNc2cn[nH]c(=O)c2Br)cc1OCCCC(=O)N1CCN(Cc2ccccc2)CC1 [Compound 48] | 210 nM | 950 nM | IC50 (platelet; [4]): 4000 nM
16 | COc1ccc(CNc2cn[nH]c(=O)c2Cl)cc1OCCCCCC(=O)N1CCN(Cc2ccccc2)CC1 [Compound 49] |  | 1100 nM | 
17 | COc1ccc(CNc2cn[nH]c(=O)c2Cl)cc1OCC(=O)N1CCN(Cc2ccc(Cl)cc2)CC1 [Compound 51] | 97 nM | 6100 nM | IC50 (platelet; [4]): 1100 nM

Row | SMILES | EC50 (guinea-pig trachea [1]) | EC50 (guinea-pig trachea [2]; Cavia porcellus) | also measured
18 | COc1ccc(CNc2cn[nH]c(=O)c2Cl)cc1OCC(O)CN1CCN(Cc2ccc(F)cc2)CC1 (stereo not drawn) [Compound 53] |  | 3100 nM | 
19 | COc1ccc(CNc2cn[nH]c(=O)c2Cl)cc1OCCCN1CCN(Cc2ccccc2)CC1 [Compound 54] | 300 nM |  | EC50 (guinea-pig trachea [2]): 2400 nM
20 | COc1ccc(CNc2cn[nH]c(=O)c2Cl)cc1OC(C)CN1CCN(Cc2ccc(F)cc2)CC1 (stereo not drawn) [Compound 55] |  | 7300 nM | 
21 | COc1ccc(CNc2cn[nH]c(=O)c2Cl)cc1OCC(=O)N1CCN(Cc2ccc3ccccc3n2)CC1 [Compound 61] | 310 nM |  | 
22 | COc1ccc(CNc2cn[nH]c(=O)c2Cl)cc1OCC(=O)N1CCC(Cc2ccccc2)CC1 [Compound 62] | 50 nM |  | 
23 | CCOc1n[nH]c(=O)c(Cl)c1NCc1ccc(OC)c(OCCN2CCN(Cc3ccc(F)cc3)CC2)c1 [Compound 65] | 360 nM |  | 
24 | CCOc1n[nH]c(=O)c(Cl)c1NCc1ccc(OC)c(OCC(=O)N2CCN(Cc3ccccc3)CC2)c1 [Compound 66] | 67 nM | 180 nM | 
25 | CCOc1n[nH]c(=O)c(Cl)c1NCc1ccc(OC)c(OCC(C)(C)C(=O)N2CCN(Cc3ccc(F)cc3)CC2)c1 [Compound 69] | 430 nM |  | 
26 | CCOc1n[nH]c(=O)c(Cl)c1NCc1ccc(OC)c(OCCCN2CCN(Cc3ccc4ccccc4n3)CC2)c1 [Compound 71] | 250 nM |  | 
27 | CCOc1n[nH]c(=O)c(Cl)c1NCc1ccc(OC)c(OCC(=O)N2CCN(Cc3nc4ccccc4n3Cc3ccc(F)cc3)CC2)c1 [Compound 73] | 490 nM |  | 
28 | CCOc1n[nH]c(=O)c(Cl)c1NCc1ccc(OC)c(OCC(=O)N2CCC(Cc3ccccc3)CC2)c1 [Compound 74] | 46 nM |  | inhibition in vivo at 30 mg/kg [3]: 30%
29 | CCOc1n[nH]c(=O)c(Cl)c1NCc1ccc(OC)c(OCCN2CCC(Cc3ccccc3)CC2)c1 [Compound 75] | 400 nM |  | 
30 | COc1ccc(CNc2c(OC(C)C)n[nH]c(=O)c2Cl)cc1OCC(=O)N1CCN(Cc2ccc(F)cc2)CC1 [Compound 76] | 48 nM | 690 nM | 
31 | COc1ccc(CNc2c(OC(C)C)n[nH]c(=O)c2Cl)cc1OCC(O)CN1CCN(Cc2ccc(NC=O)cc2)CC1 (stereo not drawn) [Compound 77] | 57 nM |  | inhibition in vivo at 30 mg/kg [3]: 65%
32 | COc1ccc(CNc2c(OC(C)C)n[nH]c(=O)c2Cl)cc1OCC(=O)N1CCN(Cc2ccc(N)cc2)CC1 [Compound 78, 4-Chloro-5-[3-(4-(4-aminobenzyl)-piperazin-1-yl)-carbonylmethoxy-4-methoxybenzylamino]-6-isopropoxy-3(2H)-pyridazinone] | 14 nM |  | inhibition in vivo at 30 mg/kg [3]: 54%
33 | COc1ccc(CNc2c(OC(C)C)n[nH]c(=O)c2Cl)cc1OCC(=O)N1CCN(Cc2ccc(NC=O)cc2)CC1 [Compound 79] | 41 nM |  | 
34 | COc1ccc(CNc2c(OC(C)C)n[nH]c(=O)c2Cl)cc1OCC(=O)N1CCN(Cc2ccc(NC(C)=O)cc2)CC1 [Compound 80] | 39 nM |  | inhibition in vivo at 30 mg/kg [3]: 30%
